Results published in US8980223B2, “Methods of preventing ischemic injury using peripheral nociceptive stimulation” (University of Cincinnati, priority 2009, dated 2015).
“Also recorded” adds a separate entry of the source. Each block holds one compound with its values, some of them ahead of it.

Legend:
[1] = tested on: murine ischemia/reperfusion model of myocardial infarction; assay: Mouse ischemia/reperfusion model, topical capsaicin 15 min prior to coronary occlusion, infarct size; format: in vivo, mice
[2] = target: T1, TRPV1 (Mus musculus, UniProt Q704Y3); assay: Topical capsaicin before ischemia/reperfusion in wild-type versus TRPV1 knock-out mice, infarct size; format: in vivo; settings: capsaicin topically to the abdomen prior to ischemia and reperfusion, compared to TRPVKO mice
T1 construct: data from wild-type mice topically treated with capsaicin administered to the abdomen; from tissue; host or cells: living mice; skin nociceptors (C-fibers) of the abdomen
From the text: Infarct size as a percent of risk region is presented on the y-axis. The first bar presents data from wild-type mice topically treated with capsaicin administered to the abdomen prior to surgical induction of ischemia and reperfusion (WT, Capsaicin, hatched bar). The second bar presents data from TRPV 1 knockout mice topically treated with capsaicin administered to the abdomen prior to surgical induction of ischemia and reperfusion (TRPVKO, Capsaicin, dotted bar). The third bar presents data from TRPV 1 knockout mice subjected to sham treatment prior to surgical induction of ischemia and reperfusion (TRPVKO No capsaicin, empty bar).

[3] = tested on: murine ischemia/reperfusion model of myocardial infarction; assay: Topical capsaicin during ischemia or after reperfusion, infarct size; format: in vivo, mice; settings: p<0.01
[4] = tested on: peripheral C-fiber nociceptors; assay: Lidocaine before remote electrical stimulation and ischemia/reperfusion, infarct size; format: in vivo, mice; settings: 2% lidocaine, 10 μl s.c., prior to electrical stimulation and ischemia; compared with vehicle ES
Method: (§1) A previously described mouse model of ischemia and reperfusion (I/R) injury in vivo was used (Ren et al. (2004) J. Surg Res. 121(1):120-129; Fan et al (2005)Circulation 111(14):1792-1799; Zhou et al (2007)Cardiovascular Research 75(3) 487-497; and Diwan et a/(2007) J. Clinical Investigation 117(10):2825-2833, herein incorporated by reference in their entirety). Mice were anesthetized with sodium pentobarbital (90 mg/kg ip), intubated with PE 90 tubing and ventilated using a mouse miniventilator (Harvard Apparatus, Holliston, Mass.). All mice were continuously monitored by electrocardiography (ECG) (DigiMed Sinus Rhythm Analyzer, Micro-Med Inc), and mice without evidence of ischemia and timely reperfusion were excluded from the studies. […]
(§2) Mice were euthanized either 4 or 24 hours after reperfusion and infarct size determination and imaging were performed by previously described methods (Ren et al. (2004) J. Surg Res. 121(1):120-129 and Guo et al (1998) Am J. Physiology 275(4 Pt 2):H1375-1387, herein incorporated by reference in their entirety). […] Infarct size was determined by the method of Fishbein et al (1981) Am Heart J 101(5):593-600, herein incorporated by reference in its entirety. […]

[5] = tested on: protein kinase C(PKC); assay: Chelerythrine before electrical stimulation and ischemia/reperfusion, infarct size; format: in vivo, mice; settings: chelerythrine plus electrical stimulation compared with vehicle alone plus electrical stimulation
From the text: FIG. 3C presents data from wild-type mice treated with chelerythrine prior to sham treatment or electrical stimulation followed by the ischemia/reperfusion procedure. Chelerythrine is a relatively selective general protein kinase C(PKC) inhibitor. Most previously described forms of preconditioning or postconditioning require PKC activation in cardiomyocytes. Typically this is indicative of activation and/or repression of specific PKC isoforms in the hearts. Infarct size as a percentage of risk region was assessed and is indicated. The hatched bar presents data from mice treated with chelerythrine and subject to sham treatment (chelerythrine control). The dotted bar presents data from mice treated with vehicle alone and electrically stimulated (vehicle ES). […]
as §1, with “Mice were anesthetized with sodium pentobarbital (90 mg/kg ip), intubated with PE 90 tubing and ventilated using a mouse miniventilator (Harvard Apparatus, Holliston, Mass.).” left out

[6] = target: T2, TRPV2 (Mus musculus, UniProt Q9WTR1); assay: Topical probenecid in mouse ischemia/reperfusion model, infarct size; format: in vivo, mice; settings: topical probenecid application versus control animals; p<0.07
T2 construct: mice that received topical probenecid application; from tissue; host or cells: living mice (topical application to skin)
T2 sequence (Q9WTR1 1-756): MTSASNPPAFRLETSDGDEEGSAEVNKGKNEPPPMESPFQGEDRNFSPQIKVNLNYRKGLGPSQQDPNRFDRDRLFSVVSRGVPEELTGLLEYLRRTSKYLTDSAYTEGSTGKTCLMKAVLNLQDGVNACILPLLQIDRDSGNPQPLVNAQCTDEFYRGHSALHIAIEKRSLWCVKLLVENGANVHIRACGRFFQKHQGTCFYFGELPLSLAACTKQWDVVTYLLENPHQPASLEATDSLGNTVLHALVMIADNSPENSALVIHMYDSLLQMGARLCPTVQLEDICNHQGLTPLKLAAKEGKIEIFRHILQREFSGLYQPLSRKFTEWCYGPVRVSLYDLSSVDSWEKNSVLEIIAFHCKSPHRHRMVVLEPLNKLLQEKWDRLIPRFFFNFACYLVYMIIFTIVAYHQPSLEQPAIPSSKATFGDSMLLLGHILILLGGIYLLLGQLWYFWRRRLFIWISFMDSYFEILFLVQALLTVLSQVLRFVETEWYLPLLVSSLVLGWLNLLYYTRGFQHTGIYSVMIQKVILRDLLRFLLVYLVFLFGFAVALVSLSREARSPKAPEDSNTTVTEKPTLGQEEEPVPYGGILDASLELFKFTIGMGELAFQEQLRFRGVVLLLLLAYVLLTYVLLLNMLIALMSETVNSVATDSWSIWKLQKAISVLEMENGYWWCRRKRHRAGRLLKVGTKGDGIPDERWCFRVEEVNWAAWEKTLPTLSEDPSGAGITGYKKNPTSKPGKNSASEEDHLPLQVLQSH
From the text: FIG. 11 presents a graph of infarct size as a percent of risk area in mice that received topical probenecid application (empty bars) or sham treatments (hatched bars).
as §1, §2

[7] = tested on: β-adrenergic receptor; design: species or system mice; settings: mouse, in vivo
Method: The mice then underwent either sham treatment or electrical stimulation (ES) followed by the ischemia/reperfusion procedure.
A lateral thoracotomy (1.5 cm incision between the second and third ribs was performed to provide exposure of the left anterior descending coronary artery (LAD). Vascular bundles in the vicinity were coagulated using a microcoagulator (Medical Industries Inc, St. Petersburg Fla.). An 8-O nylon suture was placed around the LAD 2-3 mm from the tip of the left auricle and a piece of soft silicon tubing (0.64 mm ID, 1.19 mm OD) was placed over the artery. Coronary occlusion was achieved by tightening and tying the suture. Coronary occlusion was for 45 minutes, unless indicated otherwise. At the end of the occlusion, the suture was untied and left in place. Ischemia was confirmed by visual observation of cyanosis and by continuous ECG monitoring (QRS complex widening, T wave inversion and ST segment changes); reperfusion was confirmed by reversal of these effects. […]

T1 sequence (Q704Y3 whole entry, the tested form may be a part): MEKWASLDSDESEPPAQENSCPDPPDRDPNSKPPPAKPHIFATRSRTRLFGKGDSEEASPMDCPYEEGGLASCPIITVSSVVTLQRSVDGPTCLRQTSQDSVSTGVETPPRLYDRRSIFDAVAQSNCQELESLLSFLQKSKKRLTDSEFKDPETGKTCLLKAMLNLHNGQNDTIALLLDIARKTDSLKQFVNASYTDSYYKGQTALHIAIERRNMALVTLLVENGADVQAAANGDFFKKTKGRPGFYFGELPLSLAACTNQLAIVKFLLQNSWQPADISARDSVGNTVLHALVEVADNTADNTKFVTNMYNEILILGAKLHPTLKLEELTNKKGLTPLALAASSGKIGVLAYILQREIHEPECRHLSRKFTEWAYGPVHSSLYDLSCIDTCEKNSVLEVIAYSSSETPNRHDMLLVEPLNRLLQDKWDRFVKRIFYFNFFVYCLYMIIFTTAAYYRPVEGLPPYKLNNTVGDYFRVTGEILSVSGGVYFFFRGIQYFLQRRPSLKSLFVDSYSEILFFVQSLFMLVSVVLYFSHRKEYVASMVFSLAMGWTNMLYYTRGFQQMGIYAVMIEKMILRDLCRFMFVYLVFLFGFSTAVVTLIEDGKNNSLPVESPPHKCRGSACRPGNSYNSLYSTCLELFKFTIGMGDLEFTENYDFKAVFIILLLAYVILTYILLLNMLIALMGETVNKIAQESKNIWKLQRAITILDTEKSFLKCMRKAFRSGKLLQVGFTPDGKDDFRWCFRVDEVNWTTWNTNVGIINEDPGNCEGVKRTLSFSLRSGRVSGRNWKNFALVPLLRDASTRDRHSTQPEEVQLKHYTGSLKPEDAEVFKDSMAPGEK

infarct size as a percent of risk region [2]: reduced myocardial infarct size
SMILES: COc1cc(CNC(=O)CCCC/C=C/C(C)C)ccc1O [capsaicin, (6E)-N-[(4-Hydroxy-3-methoxyphenyl)methyl]-8-methyl-6-nonenamide]
reduction of infarct size ([1]; remote pre-conditioning, stimulus given 15 minutes prior to the ischemia, 45 min coronary occlusion, versus sham, n=6): 85% | Infarct size as a percent of the risk region ([1]; remote pre-treatment prior to ischemia/reperfusion versus sham, P<0.01): substantial reduction in infarct size | infarct size as a percent of risk area ([3]; topical capsaicin application after reperfusion (postCON) versus sham): significantly reduces infarct size | infarct size as a percent of risk area ([3]; topical capsaicin application during ischemia (conditioning) versus sham): significantly reduces infarct size

SMILES: CCN(CC)CC(=O)Nc1c(C)cccc1C [lidocaine]
infarct size as a percent of risk region [4]: no significant cardioprotection relative to controls; also recorded: significantly higher percentage of risk region

SMILES: COc1ccc2c(c[n+](C)c3c4cc5c(cc4ccc23)OCO5)c1OC [chelerythrine]
Infarct size as a percentage of risk region [5]: reduced inhibition of ischemia-related tissue damage

infarct size as a percent of risk region [6]: significantly reduced
SMILES: CCCN(CCC)S(=O)(=O)c1ccc(C(=O)O)cc1 [probenecid]

SMILES: CC(C)NCC(O)COc1cccc2ccccc12 (stereo not drawn) [propanolol]
Infarct size as a percentage of risk region [7]: significantly higher
